In patent publication US20080139638A1, “METHOD OF INCREASING GROWTH HORMONE SECRETION” (priority 2006, published 2008):
“Also recorded” adds a separate entry of the source. Read-outs that look alike come from different tables or passages of the source.

Tests used:
[1] = system: growth hormone; conditions: 5.0 mg oral 60 minutes prior to bicycle exercise at 70% VO2max; cited from earlier work
[2] = system: growth hormone release; conditions: cited from earlier work
[3] = system: growth hormone secretion; experiment: Serum growth hormone (ELISA/EIA) after oral melatonin supplementation 60 min before a single bout of resistance exercise (leg press); type: in vivo, human (healthy males)
Excerpt: Thirty, healthy males who had partaken in regular resistance training for at least one year prior to the study were selected [n=30(22.72±3.28 years, 180.94±6.24 cm in height, and 82.08±9.18 kg in weight)] served as participants in the study. All of the participants passed a mandatory medical screening and were considered either as low or moderate risk or with no contradictions to exercise as outline by the American College of Sports Medicine (ACSM). Furthermore, the participants had not consumed any nutritional supplements, with the exclusion of vitamins, during a two month period prior the experiment.
Participants were matched by relative strength level (strength/body weight) and then randomly assigned to one of three different protocols. The supplement protocol consisted of a double-blind with groups receiving either 0.5 mg or 5.0 if melatonin (N-Acetyl-5-methoxytryptamine) or 1.0 mg of dextrose as a placebo. Participants were allowed a light breakfast at 8:00 am, wherein they were asked to record the consumed items, and then were required to fast until 2 pm. Seventy-five minutes prior to each exercise session, (12:30 pm), an intravenous cannula was inserted into a foreman vein. At 60 minutes prior to the exercise session, a baseline blood sample was taken and the participant orally received a supplement of placebo according top that outlined above. During the 60 minutes prior to exercise, the participants were required to rest in a supine position and blood samples were taken every 15 minutes up to the initiation of the resistance exercise. The leg press exercise consisted of 7 sets of 7 slow repetitions at 85% of the weight of the respective participant's one repetition maximum. Each set was preformed over the course of 30 seconds followed by 150 seconds of rest. The entire resistance exercise session was 21 minutes in duration.
Venous blood samples were obtained into 10 ml vacutainer tubes via a 20 gauge intravenous catheter inserted into a foreman vein after the subcutaneous injection of a topical anesthetic (2% Xylocaine). Following the five hour fast, blood samples were obtained at 15-minute intervals commencing 60 minutes prior to the resistance exercise session and then at 15-minute intervals for 120 minutes following the resistance exercise session. Blood samples were allowed to stand for 10 minutes at room temperature and then centrifuged at 2,400 rpm for 10 minutes. The serum was then separated and stored at (−)20° C. until analysis.
Using enzyme-linked immunosorbent assays (ELISA), and enzyme-immunosorbent assays (EIA), serum samples were assayed for growth hormone (Diagnostics Systems Laboratories, Webster, Tex.) using a Wallac Victor-1420 microplate reader from Perkin-Elmer Life Sciences. Boston, Mass. at either 450 or 405 nm respectively. An ultra-sensitive assay with a lower detection limit of 0.66 pg/ml was used to determine the levels of growth hormone without any detectable interference of circulation glycoproteins, GH-dependent peptide hormones, or growth hormone binding protein.
Statistical analyses were performed using factorial analysis of variance (ANOVA) with repeated measures for each criterion value. Pairwise comparisons were used to differentiate significant differences among the three groups. All statistical procedures were performed using SPSS 11.0 software and a probability level of <0.05 was adopted throughout.
Short half-life hormones which are highly sensitive to diurnal variations, such as growth hormone, display great variability in the baseline values as was observed. As such, peak serum hormone responses before and after resistance exercise were subtracted from the baseline values of each participant in order to determine the increase in the growth hormone resulting from the treatments.

[4] = system: growth hormone; conditions: no exercise, cited from earlier work

## COc1ccc2[nH]cc(CCNC(C)=O)c2c1 [melatonin, N-Acetyl-5-methoxytryptamine]
[1]
  growth hormone compared to placebo, area under the curve: significant increases
  time of growth hormone peak following exercise: 30 min
[2]; 0.4 mg/kg intravenous
  effect on basal growth hormone levels: have been shown to have an effect
[2]; 1 g oral
  effect on basal growth hormone levels: have been shown to have an effect
[2]; small doses, less than 2 mg, oral
  effect on the 24-hr profile of growth hormone concentration: have not be shown to affect
[3]; 0.5 mg melatonin oral 60 min prior to exercise, post-exercise period
  fold increase in serum growth hormone relative to placebo: approximately 3.16 fold
[3]; 0.5 mg melatonin oral, post-workout period
  serum growth hormone levels compared to placebo (in words): statistically significant (p=0.045) elevations
[3]; 0.5 mg melatonin oral, pre-exercise period
  serum growth hormone levels compared to placebo (in words): no statistical difference; also recorded: no significant increase
[3]; 0.5 mg vs 5.0 mg melatonin oral, post-exercise
  increase in growth hormone of the 0.5 mg group compared to the 5.0 mg group (in words): significantly greater increase
[3]; 5.0 mg melatonin oral, post-workout period
  serum growth hormone levels compared to placebo (in words): statistically significant (p=0.045) elevations
[3]; 5.0 mg melatonin oral, pre-exercise period
  serum growth hormone levels compared to placebo (in words): increased relative to placebo
[3]; 5.0 mg melatonin oral, pre-exercise period, peak standardized to baseline
  fold increase in serum growth hormone relative to placebo: ~2.35 fold
[4]; 0.5 mg oral
  plasma growth hormone concentrations: significant increase
  time of peak plasma growth hormone values: 60 min
[4]; 5.0 mg oral
  plasma growth hormone concentrations: significant increase
  time of peak plasma growth hormone values: 60 min
